Data: patent US10106580B2, “Enopeptins, uses thereof, and methods of synthesis thereto” (Brown University, priority 2011, dated 2018)
Converted amounts (≈) assume the structure as drawn. Numbered stars: 1 amine (or outer) side, 2 acyl side, 3 side chain; on linkers, the order of the positions; unused ones are H or OH. Bridge positions count the residues as written; N and C are the ends. Square brackets hold non-standard residues; d marks the D form. Peptide text beside a SMILES is read from it. * marks the point of attachment. Phe(3-F) = N[C@@H](Cc1cccc(F)c1)C(=O)O; X2 = CC1CCN([*:1])[C@@H](C(=O)[*:2])C1; X1 = CC1CCN([*:1])[C@H](C(=O)[*:2])C1; X3 = CCC(CC)(C(=O)[*:2])N(C)[*:1]; Heptenoyl(2E) = CCCC/C=C/C(=O)*; NMeAc6c = CNC1(C(=O)O)CCCCC1; NMeAc5c = CNC1(C(=O)O)CCCC1; NMeAc4c = CNC1(C(=O)O)CCC1

Assays:
S. aureus strains = test: Antibacterial activity vs S. aureus strains, stated in words; format: cell-based, Staphylococcus aureus
Source text: (§1) The naturally occurring enopeptins and the synthetic derivative ADEP 4 are reported to have strong antibacterial activity (see, e.g., Hinzen et al., Chem Med Chem 2006, 1, 689). Broth dilution assays were used to determine the MICs of the acyldepsipeptide derivatives 10a-h against both ATCC strains and clinical isolates of S. epidermis, S. aureus, and Enterococci obtained from patients of the Veterans Affairs Medical Center in Providence, R.I. Clinical isolates were included to gain a better indication of the potential of these new antibacterial agents (see, e.g., Clinical and Laboratory Standard Institute (CLSI) Methods for dilution antimicrobial susceptibility tests for bacteria that grow aerobically M07-A8; CLSI 8th ed., Wayne, Pa., 2009; Clinical Laboratory Standards Institute (CLSI) Performance standards for antimicrobial susceptibility testing M100-S19. CLSI 19th informational suppl., Wayne, Pa. 2009). In the interest of assessing the cell-killing ability of these compounds, the minimal bactericidal concentrations (MBC) of the compounds was also determined against the aformentioned strains. […]
(§2) Minimum inhibitory concentrations (MIC) were determined in duplicate using methods outlined by The Clinical and Laboratory Standards Institute. […] Colony counts for the inoculum verification was determined using Tryptic Soy Agar plates (TSA, Difco, Becton Dickinson Co., Sparks, Md., USA). […]

[1] = system: Methicillin-resistant S. aureus (clinical isolate from blood); test: Broth dilution MIC/MBC vs methicillin-resistant S. aureus; format: cell-based; details: Staphylococcus aureus, MRSA (clinical isolate from blood); for MBC: 99.9% kill after 24 h
Source text: (§3) The naturally occurring enopeptins and the synthetic derivative ADEP 4 are reported to have strong antibacterial activity (see, e.g., Hinzen et al., Chem Med Chem 2006, 1, 689). Broth dilution assays were used to determine the MICs of the acyldepsipeptide derivatives 10a-h against both ATCC strains and clinical isolates of S. epidermis, S. aureus, and Enterococci obtained from patients of the Veterans Affairs Medical Center in Providence, R.I. Clinical isolates were included to gain a better indication of the potential of these new antibacterial agents (see, e.g., Clinical and Laboratory Standard Institute (CLSI) Methods for dilution antimicrobial susceptibility tests for bacteria that grow aerobically M07-A8; CLSI 8th ed., Wayne, Pa., 2009; Clinical Laboratory Standards Institute (CLSI) Performance standards for antimicrobial susceptibility testing M100-S19. CLSI 19th informational suppl., Wayne, Pa. 2009). In the interest of assessing the cell-killing ability of these compounds, the minimal bactericidal concentrations (MBC) of the compounds was also determined against the aformentioned strains. The MIC was defined as the lowest concentration of an antimicrobial agent visually inhibiting more than […].
(§4) Minimum inhibitory concentrations (MIC) were determined in duplicate using methods outlined by The Clinical and Laboratory Standards Institute. Compounds were dissolved in DMSO and fresh cation-adjusted Mueller-Hinton broth (SMHB; Difco Laboratories, Sparks, Md., USA; 25 μg/mL calcium and 12.5 μg/mL magnesium) was used to dilute antimicrobial agents in a serial 2-fold schedule. Colony counts for the inoculum verification was determined using Tryptic Soy Agar plates (TSA, Difco, Becton Dickinson Co., Sparks, Md., USA). Following incubation, 100 μL of broth was subcultured onto TSA for MBC determination. MIC and MBC determination can be found in Table 2 and 3. Control isolates were obtained from the American Type Culture Collection (ATCC) and were as follows: Methicillin-resistant S. epidermidis (MRSE ATCC 35984); MSSA (ATCC 35556) and, VRE (ATCC 2030).

[2] = system: Enterococcus faecalis (clinical isolate from rectal swab); test: Broth dilution MIC/MBC vs E. faecalis clinical isolate; format: cell-based; details: EF^2: E. faecalis (clinical isolate from rectal swab)
Source text: as §3, §4

[3] = system: Vancomycin-resistant Enterococcus faecalis (clinical isolate from rectal swab); test: Broth dilution MIC/MBC vs vancomycin-resistant E. faecalis; format: cell-based; details: VRE
Source text: as §3, §4

[4] = system: Methicillin-susceptible S. aureus (ATCC 35556); test: Broth dilution MIC/MBC vs methicillin-susceptible S. aureus; format: cell-based, Staphylococcus aureus; details: for MIC / MBC: Staphylococcus aureus, ATCC 35556 / MSSA, MSSA (ATCC 35556); for MBC: 99.9% kill after 24 h
Source text: as §3, §4

[5] = system: Enterococcus faecalis (ATCC 29212); test: Broth dilution MIC/MBC vs E. faecalis ATCC strain; format: cell-based; details: ATCC29212, EF^1: E. faecalis (ATCC 29212)
Source text: as §3, §4

[6] = system: Staphylococcus epidermis (ATCC 25984); test: Broth dilution MIC/MBC vs Staphylococcus epidermis; format: cell-based; details: ATCC25984
Source text: as §1, §2

[7] = system: Vancomycin-resistant Enterococcus faecium (clinical isolate obtained from tissue); test: Broth dilution MIC/MBC vs vancomycin-resistant E. faecium; format: cell-based; details: VRE
Source text: as §3, §4

[8] = system: E. faecalis and vancomycin-resistant E. faecium; test: Antibacterial activity vs panel of pathogenic Enterococci, stated in words; format: cell-based; details: against E. faecalis and vancomycin-resistant E. faecium
Source text: as §1, §2

Row | SMILES | MIC [1] | MIC [4] | antibacterial activity (S. aureus strains) | MBC [1] | MBC [2] | MIC [2] | MBC [3] | MIC [3] | MBC [4] | MBC [5] | MIC [5] | MBC [6] | MIC [6] | MBC [7] | MIC [7] | antibacterial activity compared with compound 10a [8] | antibacterial activity compared with compound 10a ([4]; against MSSA, in words)
1 | CCCC/C=C/C(=O)N[C@@H](Cc1cccc(F)c1)C(=O)N[C@H]1COC(=O)[C@@H]2CCCN2C(=O)[C@H](C)NC(=O)[C@@H]2CCCCN2C(=O)[C@@H]2CCCN2C1=O [Compound 10a] | 1.25 µg/mL (≈ 1.69 µM) | 1.25 µg/mL (≈ 1.69 µM) | exhibited the expected antibacterial activity | 1.25 µg/mL (≈ 1.69 µM) | 0.04 µg/mL (≈ 0.0541 µM) | 0.04 µg/mL (≈ 0.0541 µM) | 0.04 µg/mL (≈ 0.0541 µM) | 0.04 µg/mL (≈ 0.0541 µM) | 1.25 µg/mL (≈ 1.69 µM) | 1.25 µg/mL (≈ 1.69 µM) | 0.16 µg/mL (≈ 0.217 µM) | 1.25 µg/mL (≈ 1.69 µM) | 1.25 µg/mL (≈ 1.69 µM) | 0.08 µg/mL (≈ 0.108 µM) | 0.08 µg/mL (≈ 0.108 µM) |  | 
2 | CCCC/C=C/C(=O)N[C@@H](Cc1cccc(F)c1)C(=O)N[C@H]1COC(=O)[C@@H]2CCCN2C(=O)[C@H](C)NC(=O)[C@@H]2CC(C)CCN2C(=O)[C@@H]2CCCN2C1=O (some centres unmarked) [Compound 10c] ({Heptenoyl(2E)}-[Phe(3-F)]SP[X1]AP; ester 2-C) | 0.6 µg/mL (≈ 0.797 µM) | 0.6 µg/mL (≈ 0.797 µM) |  | 2.4 µg/mL (≈ 3.19 µM) | 0.04 µg/mL (≈ 0.0531 µM) | 0.02 µg/mL (≈ 0.0266 µM) | 0.04 µg/mL (≈ 0.0531 µM) | 0.04 µg/mL (≈ 0.0531 µM) | 0.6 µg/mL (≈ 0.797 µM) | 0.08 µg/mL (≈ 0.106 µM) | 0.04 µg/mL (≈ 0.0531 µM) |  |  | 0.08 µg/mL (≈ 0.106 µM) | 0.04 µg/mL (≈ 0.0531 µM) | more potent activity | better activity than compound 10a
3 | CCCC/C=C/C(=O)N[C@@H](Cc1cccc(F)c1)C(=O)N[C@H]1COC(=O)[C@@H]2CCCN2C(=O)[C@H](C)NC(=O)C2(CCC2)N(C)C(=O)[C@@H]2CCCN2C1=O [Compound 10f] ({Heptenoyl(2E)}-[Phe(3-F)]SP[NMeAc4c]AP; ester 2-C) | > 312 µg/mL | 312 µg/mL (≈ 422 µM) |  | > 312 µg/mL |  |  |  |  | > 312 µg/mL |  |  |  |  |  |  |  | 
4 | CCCC/C=C/C(=O)N[C@@H](Cc1cccc(F)c1)C(=O)N[C@H]1COC(=O)[C@@H]2CCCN2C(=O)[C@H](C)NC(=O)C2(CCCC2)N(C)C(=O)[C@@H]2CCCN2C1=O [Compound 10g] ({Heptenoyl(2E)}-[Phe(3-F)]SP[NMeAc5c]AP; ester 2-C) | > 312 µg/mL | 39.1 µg/mL (≈ 51.9 µM) |  | > 312 µg/mL |  |  |  |  | > 312 µg/mL |  |  |  |  |  |  |  | 
5 | CCCC/C=C/C(=O)N[C@@H](Cc1cccc(F)c1)C(=O)N[C@H]1COC(=O)[C@@H]2CCCN2C(=O)[C@H](C)NC(=O)[C@H]2CCCCN2C(=O)[C@@H]2CCCN2C1=O [Compound 10b] | > 312 µg/mL | > 312 µg/mL |  | > 312 µg/mL |  |  |  |  | > 312 µg/mL |  |  |  |  |  |  |  | 

The next lines start with results.

Row | MIC [1] | MIC [4] | SMILES | antibacterial activity (S. aureus strains) | MBC [1] | MBC [2] | MIC [2] | MBC [3] | MIC [3] | MBC [4] | MBC [5] | MIC [5] | MBC [6] | MIC [6] | MBC [7] | MIC [7] | antibacterial activity compared with compound 10a [8] | antibacterial activity compared with compound 10a ([4]; against MSSA, in words)
6 | > 312 µg/mL | 39.1 µg/mL (≈ 51 µM) | CCCC/C=C/C(=O)N[C@@H](Cc1cccc(F)c1)C(=O)N[C@H]1COC(=O)[C@@H]2CCCN2C(=O)[C@H](C)NC(=O)C2(CCCCC2)N(C)C(=O)[C@@H]2CCCN2C1=O [Compound 10h] ({Heptenoyl(2E)}-[Phe(3-F)]SP[NMeAc6c]AP; ester 2-C) |  | > 312 µg/mL |  |  |  |  | > 312 µg/mL |  |  |  |  |  |  |  | 
7 | > 312 µg/mL | 78.1 µg/mL (≈ 103 µM) | CCCC/C=C/C(=O)N[C@@H](Cc1cccc(F)c1)C(=O)N[C@H]1COC(=O)[C@@H]2CCCN2C(=O)[C@H](C)NC(=O)C(CC)(CC)N(C)C(=O)[C@@H]2CCCN2C1=O [Compound 10e] ({Heptenoyl(2E)}-[Phe(3-F)]SP[X3]AP; ester 2-C) |  | > 312 µg/mL |  |  |  |  | > 312 µg/mL |  |  |  |  |  |  |  | 
8 | > 156 µg/mL | > 156 µg/mL | CCCC/C=C/C(=O)N[C@@H](Cc1cccc(F)c1)C(=O)N[C@H]1COC(=O)[C@@H]2CCCN2C(=O)[C@H](C)NC(=O)[C@H]2CC(C)CCN2C(=O)[C@@H]2CCCN2C1=O (some centres unmarked) [Compound 10d] ({Heptenoyl(2E)}-[Phe(3-F)]SP[X2]AP; ester 2-C) |  | 0.156 µg/mL (≈ 0.207 µM) |  |  |  |  | > 156 µg/mL |  |  |  |  |  |  |  | 
